Experimental data from paper PMC9120017, “Inhibition mechanism of the chloride channel TMEM16A by the pore blocker 1PBC” (Nature Communications, 2022).
Where two headings read alike, the source gives them in different places.

Biological target: T1, mouse TMEM16A mutant G510P (Mus musculus, UniProt Q8BHY3, G510P)
T1 construct: expressed in transfected cells; host or cells: HEK293T
T1 sequence (Q8BHY3 1-960 G510P): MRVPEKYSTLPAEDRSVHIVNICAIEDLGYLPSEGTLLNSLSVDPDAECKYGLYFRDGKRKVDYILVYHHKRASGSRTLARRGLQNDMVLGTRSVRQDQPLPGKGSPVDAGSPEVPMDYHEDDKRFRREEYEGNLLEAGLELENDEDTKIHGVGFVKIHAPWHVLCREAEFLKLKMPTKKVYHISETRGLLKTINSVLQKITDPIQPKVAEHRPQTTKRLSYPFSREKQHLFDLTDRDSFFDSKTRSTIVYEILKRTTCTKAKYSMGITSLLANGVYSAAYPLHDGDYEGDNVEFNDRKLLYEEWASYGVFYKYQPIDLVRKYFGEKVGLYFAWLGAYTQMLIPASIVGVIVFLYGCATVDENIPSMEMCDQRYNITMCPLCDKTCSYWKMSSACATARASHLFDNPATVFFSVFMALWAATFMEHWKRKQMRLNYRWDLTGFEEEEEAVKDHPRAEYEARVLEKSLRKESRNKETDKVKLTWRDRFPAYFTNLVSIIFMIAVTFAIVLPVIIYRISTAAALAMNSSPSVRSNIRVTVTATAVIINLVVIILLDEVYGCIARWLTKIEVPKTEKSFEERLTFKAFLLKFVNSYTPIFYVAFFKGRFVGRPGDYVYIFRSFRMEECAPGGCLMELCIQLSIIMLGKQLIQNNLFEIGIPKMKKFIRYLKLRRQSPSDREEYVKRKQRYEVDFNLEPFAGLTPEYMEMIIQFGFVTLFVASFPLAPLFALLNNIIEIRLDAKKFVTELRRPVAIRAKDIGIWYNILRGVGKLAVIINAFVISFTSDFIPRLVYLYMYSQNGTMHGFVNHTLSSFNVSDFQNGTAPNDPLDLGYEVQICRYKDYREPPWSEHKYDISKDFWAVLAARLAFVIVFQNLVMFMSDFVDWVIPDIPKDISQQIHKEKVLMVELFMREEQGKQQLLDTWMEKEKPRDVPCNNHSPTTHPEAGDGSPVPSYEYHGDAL
Assay: Inside-out patch recording of 1PBC block, mutant G510P
Format: cell-based
Details: for remaining activity at 3 µM: 1PBC 3; for remaining activity at 3 µM / remaining activity at 10 µM / remaining activity at 30 µM / remaining activity at 100 µM: read-out: fraction of unblocked current; for remaining activity at 10 µM: 1PBC 10; for remaining activity at 30 µM: 1PBC 30; for remaining activity at 100 µM: 1PBC 100
Method: HEK293T cells (ATCC CRL-1573) were maintained in Dulbecco’s modified Eagle’s medium (DMEM; Sigma-Aldrich) supplemented with 10 U ml^−1 penicillin, 0.1 mg ml^−1 streptomycin (Sigma-Aldrich), 2 mM L-glutamine (Sigma-Aldrich), and 10% FBS (Sigma-Aldrich) in a humidified atmosphere containing 5% CO2 at 37 °C. HEK293S GnTI^− cells (ATCC CRL-3022) were maintained in HyClone HyCell TransFx-H medium (GE Healthcare) supplemented with 10 U ml^−1 penicillin, 0.1 mg ml^−1 streptomycin, 4 mM L-glutamine, 0.15% poloxamer 188 (Sigma-Aldrich), and 1% FBS in an atmosphere containing 5% CO2 at 185 rpm at 37 °C. The ac splice variant of mouse TMEM16A (UniProt ID: Q8BHY3), mouse TMEM16B (UniProt ID: Q8CFW1), or mouse TMEM16F (UniProt ID: Q6P9J9) bearing a 3C cleavage site, a Venus YFP, a Myc tag, and a Streptavidin-binding peptide (SBP) downstream of the open reading frame in a modified pcDNA3.1 vector (Invitrogen) were used as described previously[21],[31]. Mutations were introduced using a modified QuikChange method[58] and were verified by sequencing.
HEK293T cells were transfected with 3–4 μg DNA per 6 cm Petri dish using the calcium phosphate co-precipitation method and were used within 24–96 h after transfection. Recordings were performed on inside-out patches excised from HEK293T cells expressing the construct of interest. Patch pipettes were pulled from borosilicate glass capillaries (O.D. 1.5 mm, I.D. 0.86 mm, Sutter Instrument) and were fire-polished with a microforge (Narishige) before use. Pipette resistance was typically 3–8 MΩ when filled with the recording solutions detailed below. Seal resistance was typically 4 GΩ or higher. Voltage-clamp recordings were made using Axopatch 200B, Digidata 1550, and Clampex 10.7 (Molecular Devices). Analog signals were filtered with the in-built 4-pole Bessel filter at 10 kHz and were digitized at 20 kHz. Solution exchange was achieved using a gravity-fed system through a theta glass pipette mounted on an ultra-fast piezo-driven stepper (Siskiyou). […] All recordings were performed at 20 °C.
A symmetrical ionic condition was used throughout. Stock solution with Ca^2+-EGTA contained 150 mM NaCl, 5.99 mM Ca(OH)2, 5 mM EGTA, and 10 mM HEPES at pH 7.40. Stock solution with EGTA contained 150 mM NaCl, 5 mM EGTA, and 10 mM HEPES at pH 7.40. Free Ca^2+ concentrations were adjusted by mixing the stock solutions at the required ratios calculated using the WEBMAXC program (http://web.stanford.edu/~cpatton/webmaxcS.htm). Patch pipettes were filled with the stock solution with Ca^2+-EGTA, which has a free Ca^2+ concentration of 1 mM. 1PBC (ChemBridge) stock was reconstituted in anhydrous DMSO (Sigma-Aldrich) at 100 mM and stored at −20 °C. Working solutions with 1PBC were prepared by serial dilution. Unless otherwise stated, experiments were performed at a saturating Ca^2+ concentration as shown in Supplementary Table 1 and the primary data were corrected for current rundown as described previously[21],[25].
Concentration-response relations, obtained from the ratio of the I-V plots before and after the application of the blocker, were fitted to the Hill equation,1 I/Imax=1/1+IC50/[blocker]^h where I/Imax is the normalized current responses, IC50 defines the concentration at which inhibition is at its half-maximum, and h is the Hill coefficient.

IC50 (0 mV, 15 µM Ca2+): 65.7 µM
I/Imax_+80mV (3 μM 1PBC): 0.9738
I/Imax_-80mV (3 μM 1PBC, -80 mV): 0.9802
I/Imax_+80mV (10 μM 1PBC): 0.8477
I/Imax_-80mV (10 μM 1PBC, -80 mV): 0.885
I/Imax_+80mV (30 μM 1PBC): 0.6076
I/Imax_-80mV (30 μM 1PBC, -80 mV): 0.6861
I/Imax_+80mV (100 μM 1PBC): 0.3872
I/Imax_-80mV (100 μM 1PBC, -80 mV): 0.4945
remaining activity at 3 µM (0 mV): 95.8%
remaining activity at 3 µM (20 mV): 95.6%
remaining activity at 3 µM (40 mV): 96.9%
remaining activity at 3 µM (60 mV): 95.5%
remaining activity at 3 µM (80 mV): 97.4%
remaining activity at 3 µM (100 mV): 99.8%
remaining activity at 3 µM (120 mV): 99.8%
remaining activity at 3 µM (140 mV): 104%
remaining activity at 3 µM (-20 mV): 96%
remaining activity at 3 µM (-40 mV): 97.4%
remaining activity at 3 µM (-60 mV): 99%
remaining activity at 3 µM (-80 mV): 98%
remaining activity at 3 µM (-100 mV): 97.4%
remaining activity at 3 µM (-120 mV): 96.4%
remaining activity at 3 µM (-140 mV): 96%
remaining activity at 10 µM (0 mV): 86.9%
remaining activity at 10 µM (20 mV): 85.8%
remaining activity at 10 µM (40 mV): 85%
remaining activity at 10 µM (60 mV): 84.7%
remaining activity at 10 µM (80 mV): 84.8%
remaining activity at 10 µM (100 mV): 86%
remaining activity at 10 µM (120 mV): 86.5%
remaining activity at 10 µM (140 mV): 87.9%
remaining activity at 10 µM (-20 mV): 88%
remaining activity at 10 µM (-40 mV): 90.2%
remaining activity at 10 µM (-60 mV): 89.1%
remaining activity at 10 µM (-80 mV): 88.5%
remaining activity at 10 µM (-100 mV): 89.4%
remaining activity at 10 µM (-120 mV): 88.8%
remaining activity at 10 µM (-140 mV): 89%
remaining activity at 30 µM (0 mV): 64.5%
remaining activity at 30 µM (20 mV): 64.5%
remaining activity at 30 µM (40 mV): 63.6%
remaining activity at 30 µM (60 mV): 62.9%
remaining activity at 30 µM (80 mV): 60.8%
remaining activity at 30 µM (100 mV): 62.7%
remaining activity at 30 µM (120 mV): 62.8%
remaining activity at 30 µM (140 mV): 65.9%
remaining activity at 30 µM (-20 mV): 64.6%
remaining activity at 30 µM (-40 mV): 66.2%
remaining activity at 30 µM (-60 mV): 68.7%
remaining activity at 30 µM (-80 mV): 68.6%
remaining activity at 30 µM (-100 mV): 69.3%
remaining activity at 30 µM (-120 mV): 71.3%
remaining activity at 30 µM (-140 mV): 73.4%
remaining activity at 100 µM (0 mV): 43.2%
remaining activity at 100 µM (20 mV): 42.1%
remaining activity at 100 µM (40 mV): 40.7%
remaining activity at 100 µM (60 mV): 40.1%
remaining activity at 100 µM (80 mV): 38.7%
remaining activity at 100 µM (100 mV): 39.6%
remaining activity at 100 µM (120 mV): 40.6%
remaining activity at 100 µM (140 mV): 42.9%
remaining activity at 100 µM (-20 mV): 44.4%
remaining activity at 100 µM (-40 mV): 47.1%
remaining activity at 100 µM (-60 mV): 49.1%
remaining activity at 100 µM (-80 mV): 49.4%
remaining activity at 100 µM (-100 mV): 50.5%
remaining activity at 100 µM (-120 mV): 52.6%
remaining activity at 100 µM (-140 mV): 52.8%
IC50 (20 mV, 15 µM Ca2+): 63.2 µM
IC50 (40 mV, 15 µM Ca2+): 60.2 µM
IC50 (60 mV, 15 µM Ca2+): 58.2 µM
IC50 (80 mV, 15 µM Ca2+): 54.9 µM
IC50 (100 mV, 15 µM Ca2+): 59.3 µM
IC50 (120 mV, 15 µM Ca2+): 60.9 µM
IC50 (140 mV, 15 µM Ca2+): 69.5 µM
IC50 (-20 mV, 15 µM Ca2+): 68.2 µM
IC50 (-40 mV, 15 µM Ca2+): 76.6 µM
IC50 (-60 mV, 15 µM Ca2+): 83.4 µM
IC50 (-80 mV, 15 µM Ca2+): 83.4 µM
IC50 (-100 mV, 15 µM Ca2+): 87.4 µM
IC50 (-120 mV, 15 µM Ca2+): 94.4 µM
IC50 (-140 mV, 15 µM Ca2+): 98.6 µM
IC50 (G510P, V 0 mV): 65.7 µM
IC50 (G510P, V 20 mV): 63.2 µM
IC50 (G510P, V 40 mV): 60.2 µM
IC50 (G510P, V 60 mV): 58.2 µM
IC50 (G510P, V 80 mV): 54.9 µM
IC50 (G510P, V 100 mV): 59.3 µM
IC50 (G510P, V 120 mV): 60.9 µM
IC50 (G510P, V 140 mV): 69.5 µM
IC50 (G510P, V -20 mV): 68.2 µM
IC50 (G510P, V -40 mV): 76.6 µM
IC50 (G510P, V -60 mV): 83.4 µM
IC50 (G510P, V -80 mV): 83.4 µM
IC50 (G510P, V -100 mV): 87.4 µM
IC50 (G510P, V -120 mV): 94.4 µM
IC50 (G510P, V -140 mV): 98.6 µM
Structure (SMILES): N#Cc1c(C(F)(F)F)cc(O)n2c1nc1ccccc12 [1PBC]
